Patent US20230301300A1, “HERBICIDAL COMPOSITIONS” (SYNGENTA CROP PROTECTION AG, priority 2020, published 2023)

Legend:
Assay type in all cases: in vivo
[1] = system: Ipomoea hederacea (IPOHE); assay: B1 Post-Emergence Efficacy - Test 1; conditions: 1000 g/ha, after 13 days, five point scale
Protocol: (§1) Seeds of a variety of test species are sown in standard soil in pots:— Solanum nigrum (SOLNI), Amaranthus retoflexus (AMARE), Setaria faberi (SETFA), Alopecurus myosuroides (ALOMY), Echinochloa crus-galli (ECHCG), Ipomoea hederacea (IPOHE), Lolium perenne (LOLPE). After 8 days cultivation (post-emergence) under controlled conditions in a glasshouse (at 24/16° C., day/night; 14 hours light; 65% humidity), the plants are sprayed with an aqueous spray solution derived from the formulation of the technical active ingredient in acetone/water (50:50) solution containing 0.5% Tween 20 (polyoxyethylene sorbitan monolaurate, CAS RN 9005-64-5). Compounds are applied at 1000 g/ha. The test plants are then grown in a glasshouse under controlled conditions in a glasshouse (at 24/16° C., day/night; 14 hours light; 65% humidity) and watered twice daily. After 13 days, the test is evaluated for the percentage damage caused to the plant. The biological activities are assessed on a five point scale (5=80-100%; 4=60-79%; 3=40-59%; 2=20-39%; 1=0-19%). A blank value in the table is indicative that the compound was not tested on that species.

[2] = system: Amaranthus retoflexus (AMARE); assay: B1 Post-Emergence Efficacy - Test 1; conditions: 1000 g/ha, after 13 days, five point scale
Protocol: as §1

Solanum nigrum (SOLNI) = assay: B1 Post-Emergence Efficacy - Test 1; conditions: 1000 g/ha, after 13 days, five point scale
Protocol: as §1

Setaria faberi (SETFA) [3] = assay: B1 Post-Emergence Efficacy - Test 1; conditions: 1000 g/ha, after 13 days, five point scale
Protocol: as §1

[4] = system: Echinochloa crus-galli (ECHCG); assay: B1 Post-Emergence Efficacy - Test 1; conditions: 1000 g/ha, after 13 days, five point scale
Protocol: as §1

Lolium perenne (LOLPE) = assay: B1 Post-Emergence Efficacy - Test 1; conditions: 1000 g/ha, after 13 days, five point scale
Protocol: as §1

[5] = system: Ipomoea hederacea (IPOHE); assay: B3 Herbicidal Efficacy of Compounds of Formula (II), pre-emergence; conditions: 312 h, application pre-emergence, after 13 days, 100=total damage, 0=no damage, read-out: percentage phytotoxicity to the plant, IPOHE
Protocol: (§2) Seeds of a variety of test species [Ipomoea hederacea (IPOHE); Zea mays (ZEAMX); Echinochloa crus-galli (ECHCG); Setaria faberi (SETFA); Abutilon theophrasti (ABUTH); Amaranthus retroflexus (AMARE)] were sown in standard sterilised soil in pots. After cultivation for one day (pre-emergence) or after 8 days cultivation (post-emergence) under controlled conditions in a glasshouse (at 24/16° C., day/night; 14 hours light; 65% humidity), the plants were sprayed with an aqueous spray solution derived from the formulation of the technical active ingredient in acetone/water (50:50) solution containing 0.5% Tween 20 (polyoxyethelyene sorbitan monolaurate, CAS RN 9005-64-5), subsequently diluted in water, and sprayed to give the stated application rate. The test plants were then grown under controlled conditions in a glasshouse (at 24/16° C., day/night; 14 hours light; 65% humidity) and watered twice daily. After 13 days for pre and post-emergence, the test was evaluated visually for percentage phytotoxicity to the plant (where 100=total damage to plant; 0=no damage to plant).

Setaria faberi (SETFA) [6] = assay: as above; conditions: 312 h, application pre-emergence, after 13 days, 100=total damage, 0=no damage, read-out: percentage phytotoxicity to the plant, SETFA
Protocol: as §2

[7] = system: Abutilon theophrasti (ABUTH); assay: as above; conditions: 312 h, application pre-emergence, after 13 days, 100=total damage, 0=no damage, read-out: percentage phytotoxicity to the plant, ABUTH
Protocol: as §2

[8] = system: Amaranthus retroflexus (AMARE); assay: as above; conditions: 312 h, application pre-emergence, after 13 days, 100=total damage, 0=no damage, read-out: percentage phytotoxicity to the plant, AMARE
Protocol: as §2

[9] = system: Echinochloa crus-galli (ECHCG); assay: as above; conditions: 312 h, application pre-emergence, after 13 days, 100=total damage, 0=no damage, read-out: percentage phytotoxicity to the plant, ECHCG
Protocol: as §2

Zea mays (ZEAMX) [10] = assay: as above; conditions: 312 h, application pre-emergence, after 13 days, 100=total damage, 0=no damage, read-out: percentage phytotoxicity to the plant, ZEAMX
Protocol: as §2

[11] = system: Ipomoea hederacea (IPOHE); assay: B3 Herbicidal Efficacy of Compounds of Formula (II), post-emergence; conditions: 312 h, application post-emergence, after 13 days, 100=total damage, 0=no damage, read-out: percentage phytotoxicity to the plant, IPOHE
Protocol: as §2

Setaria faberi (SETFA) [12] = assay: as above; conditions: 312 h, application post-emergence, after 13 days, 100=total damage, 0=no damage, read-out: percentage phytotoxicity to the plant, SETFA
Protocol: as §2

[13] = system: Abutilon theophrasti (ABUTH); assay: as above; conditions: 312 h, application post-emergence, after 13 days, 100=total damage, 0=no damage, read-out: percentage phytotoxicity to the plant, ABUTH
Protocol: as §2

[14] = system: Amaranthus retroflexus (AMARE); assay: as above; conditions: 312 h, application post-emergence, after 13 days, 100=total damage, 0=no damage, read-out: percentage phytotoxicity to the plant, AMARE
Protocol: as §2

[15] = system: Echinochloa crus-galli (ECHCG); assay: as above; conditions: 312 h, application post-emergence, after 13 days, 100=total damage, 0=no damage, read-out: percentage phytotoxicity to the plant, ECHCG
Protocol: as §2

Zea mays (ZEAMX) [16] = assay: as above; conditions: 312 h, application post-emergence, after 13 days, 100=total damage, 0=no damage, read-out: percentage phytotoxicity to the plant, ZEAMX
Protocol: as §2

| Structure (SMILES) | percentage damage caused to the plant, IPOHE [1] | percentage damage caused to the plant, AMARE [2] | percentage damage caused to the plant, SOLNI (Solanum nigrum (SOLNI)) | percentage damage caused to the plant, SETFA (Setaria faberi (SETFA) [3]) | percentage damage caused to the plant, ECHCG [4] | percentage damage caused to the plant, LOLPE (Lolium perenne (LOLPE)) | pest or weed control at 250 g/ha [5] [%] | pest or weed control at 250 g/ha (Setaria faberi (SETFA) [6]) [%] | pest or weed control at 250 g/ha [7] [%] | pest or weed control at 250 g/ha [8] [%] | pest or weed control at 250 g/ha [9] [%] | plant injury at 250 g/ha (Zea mays (ZEAMX) [10]) [%] | pest or weed control at 250 g/ha [11] [%] | pest or weed control at 250 g/ha (Setaria faberi (SETFA) [12]) [%] | pest or weed control at 250 g/ha [13] [%] | pest or weed control at 250 g/ha [14] [%] | pest or weed control at 250 g/ha [15] [%] | percent crop injury (phytotoxicity to maize) at 250 g/ha (Zea mays (ZEAMX) [16]) [%] |
| --- | --- | --- | --- | --- | --- | --- | --- | --- | --- | --- | --- | --- | --- | --- | --- | --- | --- | --- |
| Cc1nn(C)c(=O)c(-c2c(F)ccc(Cl)c2CCc2ccccc2)c1O [Compound 1.001, 4-(3-chloro-6-fluoro-2-phenethyl-phenyl)-5-hydroxy-2,6-dimethyl-pyridazin-3-one] | 5 (5=80-100%) | 5 (5=80-100%) | 5 (5=80-100%) | 5 (5=80-100%) | 5 (5=80-100%) | 5 (5=80-100%) |  |  |  |  |  |  |  |  |  |  |  |  |
| Cc1nn(C)c(=O)c(-c2c(F)ccc(Cl)c2/C=C/c2ccccc2)c1O [Compound 1.002, 4-[3-chloro-6-fluoro-2-[(E)-styryl]phenyl]-5-hydroxy-2,6-dimethyl-pyridazin-3-one] | 5 (5=80-100%) | 4 (4=60-79%) | 5 (5=80-100%) | 3 (3=40-59%) | 4 (4=60-79%) | 4 (4=60-79%) |  |  |  |  |  |  |  |  |  |  |  |  |
| Cc1nn(C)c(=O)c(-c2c(F)ccc(Cl)c2CCc2ccc(Cl)cc2)c1O [Compound 1.012, 4-[3-chloro-2-[2-(4-chlorophenyl)ethyl]-6-fluoro-phenyl]-5-hydroxy-2,6-dimethyl-pyridazin-3-one] | 5 (5=80-100%) | 5 (5=80-100%) | 5 (5=80-100%) | 5 (5=80-100%) | 5 (5=80-100%) | 5 (5=80-100%) |  |  |  |  |  |  |  |  |  |  |  |  |
| Cc1nn(C)c(=O)c(-c2c(F)ccc(Cl)c2CCc2ccc(C(F)(F)F)cc2)c1O [Compound 1.018, 4-[3-chloro-6-fluoro-2-[2-[4-(trifluoromethyl)phenyl]ethyl]phenyl]-5-hydroxy-2,6-dimethyl-pyridazin-3-one] | 5 (5=80-100%) | 5 (5=80-100%) | 5 (5=80-100%) | 5 (5=80-100%) | 5 (5=80-100%) | 5 (5=80-100%) |  |  |  |  |  |  |  |  |  |  |  |  |
| Cc1nn(C)c(=O)c(-c2c(F)ccc(Cl)c2CCc2cccnc2)c1O [Compound 1.054, 4-[3-chloro-6-fluoro-2-[2-(3-pyridyl)ethyl]phenyl]-5-hydroxy-2,6-dimethyl-pyridazin-3-one] | 5 (5=80-100%) | 5 (5=80-100%) | 5 (5=80-100%) | 5 (5=80-100%) | 5 (5=80-100%) | 5 (5=80-100%) |  |  |  |  |  |  |  |  |  |  |  |  |
| Cc1nn(C)c(=O)c(-c2c(F)ccc(Cl)c2CCc2ccc(F)c(F)c2)c1O [Compound 1.060, 4-[3-chloro-2-[2-(3,4-difluorophenyl)ethyl]-6-fluoro-phenyl]-5-hydroxy-2,6-dimethyl-pyridazin-3-one] | 5 (5=80-100%) | 5 (5=80-100%) | 5 (5=80-100%) | 5 (5=80-100%) | 5 (5=80-100%) | 5 (5=80-100%) |  |  |  |  |  |  |  |  |  |  |  |  |
| Cc1nn(C)c(=O)c(-c2c(F)ccc(Cl)c2CCc2ccc(C(F)(F)F)cc2)c1OC(=O)C(C)C [Compound 1.095, [5-[3-chloro-6-fluoro-2-[2-[4-(trifluoromethyl)phenyl]ethyl]phenyl]-1,3-dimethyl-6-oxo-pyridazin-4-yl] 2-methylpropanoate] | 5 (5=80-100%) | 5 (5=80-100%) | 5 (5=80-100%) |  | 5 (5=80-100%) | 5 (5=80-100%) |  |  |  |  |  |  |  |  |  |  |  |  |
| Cc1ccc(CCc2c(Cl)ccc(F)c2-c2c(OC(=O)C(C)C)c(C)nn(C)c2=O)cc1 [Compound 1.149, [5-[3-chloro-6-fluoro-2-[2-(p-tolyl)ethyl]phenyl]-1,3-dimethyl-6-oxo-pyridazin-4-yl] 2-methylpropanoate] | 5 (5=80-100%) | 5 (5=80-100%) | 5 (5=80-100%) | 5 (5=80-100%) | 5 (5=80-100%) | 5 (5=80-100%) |  |  |  |  |  |  |  |  |  |  |  |  |
| CN1C[C@H](c2cc(C(F)(F)F)n(C)n2)[C@@H](C(=O)Nc2cccc(F)c2C(C)(F)F)C1=O [Compound 2.12, (3S,4R)-N-[2-(1,1-difluoroethyl)-3-fluoro-phenyl]-1-methyl-4-[1-methyl-5-(trifluoromethyl)pyrazol-3-yl]-2-oxo-pyrrolidine-3-carboxamide] |  |  |  |  |  |  | 70 | 90 | 0 | 0 | 90 | 90 | 50 | 90 | 0 | 0 | 90 | 80 |
